# System: E. coli TOP10
# Test: Suicide expression system (SES) growth inhibition
# Type: cell-based
# Details: Table 1; 0.1% inducer (arabinose), pBAD/gIIIA in E. coli TOP10, Bioscreen C 37° C., end point OD450 vs control vector
row,Substance,Growth inhibition (%)
1,6 (RRRRPFPRPFPRPFPRPFPRPFPRPFP; Synthetic antimicrobial peptide) [compound 6],57
2,8 (RRRFPRPFPRPFPRPFPRPFPRPFPRP; Synthetic antimicrobial peptide) [compound 8],38
3,7 (RRRPFPRPFPRPFPRPFPRPFPRPFPR; Synthetic antimicrobial peptide) [compound 7],39
4,12 (RRRRPPFRPPFRPPFRPPFRPPFRPPF; Synthetic antimicrobial peptide) [compound 12],76

# Same assay, conditions: Table 2; variants of SEQ ID NO:1, re-tested in the Bioscreen C
row,Substance,Growth inhibition (%)
1,22 (RRRPPRLPPRFPPRFPPRVPPRLPPRF; Synthetic antimicrobial peptide) [compound 22],81
2,19 (RRRPPRLPPRFPPRFPPRIPPRFPPRI; Synthetic antimicrobial peptide) [compound 19],78
3,15 (RRRPPRFPPRIPPRLPPRVPPRVPPRL; Synthetic antimicrobial peptide) [compound 15],57
4,24 (RRRPPRLPPRFPPRFPPRVPPRVPPRF; Synthetic antimicrobial peptide) [compound 24],90
5,21 (RRRPPRLPPRFPPRFPPRVPPRFPPRV; Synthetic antimicrobial peptide) [compound 21],86

# Same assay, conditions: Table 3; variants of SEQ ID NO:5, re-tested in the Bioscreen C
row,Substance,Growth inhibition (%)
1,55 (RRRPRPFPRPVPRPVPRPFPRPLPRPI; Synthetic antimicrobial peptide) [compound 55],63
2,52 (RRRPRPFPRPVPRPIPRPFPRPVPRPF; Synthetic antimicrobial peptide) [compound 52],53
3,48 (RRRPRPFPRPFPRPVPRPVPRPVPRPF; Synthetic antimicrobial peptide) [compound 48],59
4,30 (RRRPRPFPPPFPRPIPRPFPRPFPRPL; Synthetic antimicrobial peptide) [compound 30],61
5,37 (RRRPRPFPRPFPRPFPRPIPRPFPRPV; Synthetic antimicrobial peptide) [compound 37],68
6,40 (RRRPRPFPRPFPRPFPRPVPRPLPRPI; Synthetic antimicrobial peptide) [compound 40],69
7,31 (RRRPRPFPRPFPHPFPRPFPRPIPRPI; Synthetic antimicrobial peptide) [compound 31],73
8,44 (RRRPRPFPRPFPRPLPRPFPRPVPRPF; Synthetic antimicrobial peptide) [compound 44],95
9,34 (RRRPRPFPRPFPRPFPRPFPRPFPRPL; Synthetic antimicrobial peptide) [compound 34],74

# Same assay, conditions: Table 4; variants of SEQ ID NO:10, re-tested in the Bioscreen C
row,Substance,Growth inhibition (%)
1,185 (RRRPLRPPIRPPIRPPFRPPFRPPFRP; Synthetic antimicrobial peptide) [compound 185],79
2,91 (RRRPFRPPVRPPIRPPVRPPFRPPVRP; Synthetic antimicrobial peptide) [compound 91],52
3,101 (RRRPIRPPFRPPLRPPFRPPIRPPIRP; Synthetic antimicrobial peptide) [compound 101],81
4,171 (RRRPIRPPIRPPIRPPIRPPFRPPFRP; Synthetic antimicrobial peptide) [compound 171],77
5,161 (RRRPFRPPVRPPIRPPVRPPFRPPFRP; Synthetic antimicrobial peptide) [compound 161],78
6,191 (RRRPFRPPFRPPIRPPFRPPVRPPFRP; Synthetic antimicrobial peptide) [compound 191],77
7,160 (RRRPFRPPVRPPFRPPVRPPFRPPFRP; Synthetic antimicrobial peptide) [compound 160],77
8,118 (RRRPFRPPFRPPLRPPFRPPVRPPLRP; Synthetic antimicrobial peptide) [compound 118],73
9,81 (RRRPFRPPIRPPFRPPFRPPVRPPIRP; Synthetic antimicrobial peptide) [compound 81],80
10,71 (RRRPLRPPIRPPFRPPIRPPFRPPFRP; Synthetic antimicrobial peptide) [compound 71],82
11,200 (RRRPFRPPFRPPLRPPFRPPVRPPFRP; Synthetic antimicrobial peptide) [compound 200],87
12,115 (RRRPLRPPFRPPIRPPFRPPFRPPFRP; Synthetic antimicrobial peptide) [compound 115],79
13,177 (RRRPFRPPIRPPFRPPIRPPVRPPIRP; Synthetic antimicrobial peptide) [compound 177],75
14,168 (RRRPLRPPFRPPIRPPVRPPLRPPFRP; Synthetic antimicrobial peptide) [compound 168],71
15,175 (RRRPFRPPVRPPFRPPLRPPFRPPFRP; Synthetic antimicrobial peptide) [compound 175],77
16,109 (RRRPFRPPIRPPVRPPLRPPVRPPFRP; Synthetic antimicrobial peptide) [compound 109],71
17,188 (RRRPFRPPFRPPIRPPVRPPVRPPFRP; Synthetic antimicrobial peptide) [compound 188],83
18,67 (RRRPLRPPLRPPIRPPFRPPVRPPFRP; Synthetic antimicrobial peptide) [compound 67],80
19,129 (RRRPFRPPFRPPVRPPFRPPIRPPLRP; Synthetic antimicrobial peptide) [compound 129],69
20,182 (RRRPFRPPIRPPFRPPIRPPVRPPFRP; Synthetic antimicrobial peptide) [compound 182],83
21,128 (RRRPFRPPFRPPLRPPFRPPVRPPLRP; Synthetic antimicrobial peptide) [compound 128],69
22,202 (RRRPFRPPFRPPFRPPLRPPFRPPFRP; Synthetic antimicrobial peptide) [compound 202],84
23,138 (RRRPLRPPFRPPVRPPFRPPFRPPFRP; Synthetic antimicrobial peptide) [compound 138],78
24,158 (RRRPIRPPFRPPIRPPIRPPIRPPVRP; Synthetic antimicrobial peptide) [compound 158],67
25,72 (RRRPIRPPFRPPFRPPFRPPFRPPFRP; Synthetic antimicrobial peptide) [compound 72],49
26,111 (RRRPLRPPVRPPFRPPVRPPLRPPFRP; Synthetic antimicrobial peptide) [compound 111],59
27,74 (RRRPFRPPVRPPFRPPFRPPIRPPIRP; Synthetic antimicrobial peptide) [compound 74],76
28,149 (RRRPIRPPIRPPFRPPFRPPVRPPVRP; Synthetic antimicrobial peptide) [compound 149],62

# Same assay, conditions: Table 5; mixed-motif library, re-tested in the Bioscreen C
row,Substance,Growth inhibition (%)
1,290 (RRRPPRLPRPLPVRPPPRVPRPLPLRP; Synthetic antimicrobial peptide) [compound 290],94
2,237 (RRRPPRLPRPFPLRPPPRVPRPVPVRP; Synthetic antimicrobial peptide) [compound 237],96
3,213 (RRRPPRLPRPFPFRPPPRLPRPFPIRP; Synthetic antimicrobial peptide) [compound 213],94
4,312 (RRRPPRVPRPIPIRPPPRVPRPVPFRP; Synthetic antimicrobial peptide) [compound 312],93
5,305 (RRRPPRLPRPVPVRPPPRFPRPVPVRP; Synthetic antimicrobial peptide) [compound 305],90
6,243 (RRRPPRLPRPFPVRPPPRLPRPVPFRP; Synthetic antimicrobial peptide) [compound 243],91
7,299 (RRRPPRLPRPVPIRPPPRFPRPIPFRP; Synthetic antimicrobial peptide) [compound 299],96
8,274 (RRRPPRLPRPLPIRPPPRFPRPVPVRP; Synthetic antimicrobial peptide) [compound 274],93
9,298 (RRRPPRLPRPVPFRPPPRVPRPVPLRP; Synthetic antimicrobial peptide) [compound 298],92
10,282 (RRRPPRLPRPLPLRPPPRLPHPIPFRP; Synthetic antimicrobial peptide) [compound 282],95
11,294 (RRRPPRLPRPVPFRPPPRFPRPVPLRP; Synthetic antimicrobial peptide) [compound 294],95
12,306 (RRRPPRLPRPVPVRPPPRFPRPVPVRP; Synthetic antimicrobial peptide) [compound 306],90
13,241 (RRRPPRLPRPFPVRPPPRIPRPIPFRP; Synthetic antimicrobial peptide) [compound 241],96
14,261 (RRRPPRLPRPIPVRPPPRIPRPVPFRP; Synthetic antimicrobial peptide) [compound 261],92
15,224 (RRRPPRLPRPFPIRPPPRVPRPFPVRP; Synthetic antimicrobial peptide) [compound 224],93
16,273 (RRRPPRLPRPLPIRPPPRFPRPVPLRP; Synthetic antimicrobial peptide) [compound 273],92
17,207 (RRRPPRFPRPFPIRPPPRFPRPIPFRP; Synthetic antimicrobial peptide) [compound 207],93
18,292 (RRRPPRLPRPLPVRPPPRVPRPVPFRP; Synthetic antimicrobial peptide) [compound 292],93

# Reference: patent US7833967B2, “Synthetic antimicrobial polypeptides” (priority 2003, dated 2010)
